Article PMC10609996, “The Toxicological Assessment of Anoectochilus burmannicus Ethanolic-Extract-Synthesized Selenium Nanoparticles Using Cell Culture, Bacteria, and Drosophila melanogaster as Suitable Models” (Nanomaterials, 2023)
“And” between values parts separate entries of the source, which are not always exact repeats. Equal entries are not always repeated.

How the values were obtained:
[1] = system: Salmonella typhimurium TA 98; test: Ames test, mutagenicity, TA 98
Method: (§1) 2-aminoanthracene (2-AA) and 2-(2-furyl)-3-(5-nitro-2-furyl)-acrylamide (AF-2) standard mutagens were used as positive control. 2-AA was used in the presence of S9 mixture, while AF-2 was used without the S9 mixture. Deionized water (DI) and DMSO were used as negative controls for the samples and mutagens, respectively. The mixture solution was poured onto the minimal histidine agar and then incubated at 37 °C for 48 h. The revertant colonies formed on the agar plate were scored.
(§2) Three plates were investigated per dose in two independent experiments for both mutagenicity and antimutagenicity tests.

[2] = system: Salmonella typhimurium TA 100; test: Ames test, mutagenicity, TA 100
Method: as §1, §2

[3] = system: Salmonella typhimurium TA 98; test: Ames test, anti-mutagenicity, TA 98; format: cell-based
[4] = system: Salmonella typhimurium TA 100; test: Ames test, anti-mutagenicity, TA 100; format: cell-based
Method: The antimutagenicity was indicated based on percentage inhibition which was calculated as in the following equation:Antimutagenicity (%) = [1 − (b/a)] × 100
(§3) • a = revertant colony number induced via standard mutagen (positive control) • b = revertant colony number induced by standard mutagen in the presence of each sample treatment

Drosophila melanogaster [5] = test: SMART (wing spot test), anti-mutagenicity; conditions: mutagen alone, 1 mM
Method: The wing spots were scored as mentioned above. The percentage of anti-mutagenicity of the nanoparticles (% inhibition) was calculated as in the following equation:Antimutagenicity (%) = [(a − b)/a] × 100
• a = number of total spots per wing of positive mutagen control group • b = number of total spots per wing of each experimental group

3T3-L1 = test: Cytotoxic assay (MTT) in 3T3-L1; conditions: at up to 16 µM
MRC-5 = test: Cytotoxic assay (MTT) in MRC-5; format: cell-based, human; conditions: MRC-5, MTT
Method: (§4) Cell viability (%) = (Absorbance (sample))/(Absorbance (control)) × 100 […]
(§5) Cell proliferation was determined using an MTT assay at indicated time.
(§6) The solution was gently removed, then the crystal was dissolved by dimethyl sulfoxide (DMSO). The cell viability is directly related to the […]
(§7) to a decrease in cell numbers. […]
(§8) the starting point (0 h) (B-E).

Caco2 = test: Cytotoxic assay (MTT) in Caco2; format: cell-based, human
Method: as §4, §5, §6, §7, §8

HEK-293 = test: Cytotoxic assay (MTT) in HEK-293; format: cell-based, human; conditions: HEK-293, MTT
Method: as §4, §5, §6, §7, §8

[6] = system: Salmonella typhimurium TA 98; test: Ames test, anti-mutagenicity, TA 98; format: cell-based; conditions: TA 98, +S9, PhIP (0.1 µg/Plate)
Method: To determine the antimutagenicity of the samples, 6-phenylimidazo [4,5-b]pyridine (PhIP) and 2-Amino-3-methylimidazo [4,5-f]quinoline (IQ) were used as standard mutagens (positive control) in the test of TA98 and TA100, respectively, in the presence of S9 mixture. The antimutagenicity was indicated based on percentage inhibition which was calculated as in the following equation:Antimutagenicity (%) = [1 − (b/a)] × 100
as §3

LX-2 = test: Cytotoxic assay (MTT) in LX-2; format: cell-based, human; conditions: LX-2, MTT
Method: as §4, §5, §6, §7, §8

hPBMCs = test: Cytotoxicity on hPBMCs (SRB assay); conditions: at up to 16 µM of Se
Method: (§9) Human blood samples of healthy subjects were obtained from Maharaj Hospital, Chiang Mai, Thailand, which were anonymized by the laboratory and kept in a heparinized tube. […] The remaining RBCs were used in a hemolysis assay. […] Consent to participate was not applicable because of anonymous data collection. All methods were carried out following relevant guidelines and regulations.

hRBCs = test: Hemolysis assay
Method: as §9
Human RBCs were collected after the separation of hPBMCs from whole blood. The 5% RBCs suspension then was mixed with several concentrations of the various forms of selenium and incubated at 37 °C for three hours. […] Hemoglobin released by damaged cells can be used as a marker of red blood cell lysis following test agent exposure and can notice as a red-color solution that can be measured for absorbance using spectrophotometry. Triton X-100 was used as a positive control.

Drosophila melanogaster [7] = test: SMART (wing spot test), mutagenicity; format: in vivo; design: key to Statistical diagnosis: Small Single (m = 2) / Statistical diagnosis: Large Single (m = 5) / Statistical diagnosis: Twin (m = 5) / Statistical diagnosis: Total Spots (m = 2): + = positive; − = negative; i = inconclusive; conditions: 20 mM
Method: Urethane (20 mM) was used as a mutagen (positive control) and DI was used as a negative control. The larvae were fed on each medium until pupation at 25 °C. Later, the wings of surviving flies were removed for mutant spot analysis. Approximately 40 wings in each group were scored for the presence of mutant spots, including small single spots, large single spots, and twin spots. The results were diagnosed using the estimation of spot frequencies and confidence limits for comparison with the control group, and the statistical significance was calculated as previously described by Frei and Würgler.

[8] = TA 98, −S9, AF-2 (0.1 µg/Plate), 3.12 µM/plate
[9] = TA 98, −S9, AF-2 (0.1 µg/Plate), 6.25 µM/plate
[10] = TA 98, −S9, AF-2 (0.1 µg/Plate), 12.5 µM/plate
[11] = TA 100, +S9, IQ (0.05 µg/Plate), 3.12 µM/plate
[12] = TA 100, +S9, IQ (0.05 µg/Plate), 6.25 µM/plate
[13] = TA 100, +S9, IQ (0.05 µg/Plate), 12.5 µM/plate
[14] = TA 100, −S9, AF-2 (0.01 µg/Plate), 3.12 µM/plate
[15] = TA 100, −S9, AF-2 (0.01 µg/Plate), 6.25 µM/plate
[16] = TA 100, −S9, AF-2 (0.01 µg/Plate), 12.5 µM/plate

Molecule: Nc1ccc2cc3ccccc3cc2c1 [2-AA, 2-aminoanthracene]
- Number of Revertant Colonies ([1]; TA 98, +S9, 0.5 µg/plate): 318 ± 24
- Number of Revertant Colonies ([2]; TA 100, +S9, 0.5 µg/plate): 590 ± 38

Molecule: NC(=O)C(=Cc1ccc([N+](=O)[O-])o1)c1ccco1 [AF-2, 2-(2-furyl)-3-(5-nitro-2-furyl)-acrylamide]
- Number of Revertant Colonies ([3]; TA 98, −S9, standard mutagen alone, 0.1 µg/Plate): 347 ± 20 (0)
- Number of Revertant Colonies ([1]; TA 98, −S9, 0.1 µg/plate): 299 ± 20
- Number of Revertant Colonies ([4]; TA 100, −S9, standard mutagen alone, 0.01 µg/Plate): 460 ± 36 (0)
- Number of Revertant Colonies ([2]; TA 100, −S9, 0.1 µg/plate): 500 ± 73

Molecule: CCOS(C)(=O)=O [EMS, ethyl methanesulfonate]
- Frequency of Mutant Spots Per Individual: Large Single (>2 Cells) (Drosophila melanogaster [5]): 2.850
- Frequency of Mutant Spots Per Individual: Small Single (1–2 Cells) (Drosophila melanogaster [5]): 7.400
- Frequency of Mutant Spots Per Individual: Total Spots (Drosophila melanogaster [5]): 11.300
- Frequency of Mutant Spots Per Individual: Twin Spots (Drosophila melanogaster [5]): 1.050
- Number of Spots: Large Single (>2 Cells) (Drosophila melanogaster [5]): 114
- Number of Spots: Small Single (1–2 Cells) (Drosophila melanogaster [5]): 296
- Number of Spots: Total Spots (Drosophila melanogaster [5]): 452
- Number of Spots: Twin Spots (Drosophila melanogaster [5]): 42
- Statistical diagnosis: Large Single (>2 Cells) (Drosophila melanogaster [5]; vs deionized water): +
- Statistical diagnosis: Small Single (1–2 Cells) (Drosophila melanogaster [5]; vs deionized water): +
- Statistical diagnosis: Total Spots (Drosophila melanogaster [5]; vs deionized water): +
- Statistical diagnosis: Twin Spots (Drosophila melanogaster [5]; vs deionized water): +

Molecule: Cn1c(N)nc2c3cccnc3ccc21 [IQ, 2-Amino-3-methylimidazo [4,5-f]quinoline]
- Number of Revertant Colonies ([4]; TA 100, +S9, standard mutagen alone, 0.05 µg/Plate): 490 ± 20 (0)

Molecule: O=[Se]([O-])[O-].[Na+].[Na+] [Na2SeO3, sodium selenite]
- anti-mutagenic activity in the AF-2-induced mutation model ([3]; TA98, −S9): not observed
- % mutagenic inhibition [3, 8]: 9%
- Number of Revertant Colonies [3, 8]: 315 ± 6
- % mutagenic inhibition [3, 9]: 4%
- Number of Revertant Colonies [3, 9]: 335 ± 24
- % mutagenic inhibition [3, 10]: 5%
- Number of Revertant Colonies [3, 10]: 329 ± 14
- toxicity to pre 3T3-L1 (3T3-L1): not toxic
- effect on cell number (cell proliferation, Supplementary Figure S5) (MRC-5; 48 h vs starting point 0 h): killing effect
- IC50 (MRC-5; selenium concentration): 10.5 µM
- effect on cell number (cell proliferation, Supplementary Figure S5) (Caco2; 48 h vs starting point 0 h): killing effect
- IC50 (Caco2; selenium concentration): 4 µM and ~4 µM
- effect on cell number (cell proliferation, Supplementary Figure S5) (HEK-293; 48 h vs starting point 0 h): killing effect
- IC50 (HEK-293; selenium concentration): 9 µM
- % mutagenic inhibition ([6]; 3.12 µM/plate): 7%
- Number of Revertant Colonies ([6]; 3.12 µM/plate): 341 ± 14
- % mutagenic inhibition ([6]; 6.25 µM/plate): 6%
- Number of Revertant Colonies ([6]; 6.25 µM/plate): 345 ± 9
- % mutagenic inhibition ([6]; 12.5 µM/plate): 10%
- Number of Revertant Colonies ([6]; 12.5 µM/plate): 332 ± 23
- effect on cell number (cell proliferation, Supplementary Figure S5) (LX-2; 48 h vs starting point 0 h): killing effect
- IC50 (LX-2; selenium concentration): 11.2 µM
- cell viability of hPBMCs (hPBMCs): not harmful
- Number of Revertant Colonies ([1]; TA 98, +S9, 3.12 µM/plate): 25 ± 5
- Number of Revertant Colonies ([1]; TA 98, +S9, 6.25 µM/plate): 26 ± 4
- Number of Revertant Colonies ([1]; TA 98, +S9, 12.5 µM/plate): 27 ± 5
- Number of Revertant Colonies ([1]; TA 98, −S9, 3.12 µM/plate): 22 ± 2
- Number of Revertant Colonies ([1]; TA 98, −S9, 6.25 µM/plate): 21 ± 1
- Number of Revertant Colonies ([1]; TA 98, −S9, 12.5 µM/plate): 23 ± 3
- mutagenicity in Ames test ([1]; TA98 and TA 100, presence or absence of S9 homogenate): neither pro-mutagen nor mutagen
- % Hemolysis (hRBCs; Se concentration 4 µM, 37 °C, three hours): 0.01 ± 0.059%
- % Hemolysis (hRBCs; Se concentration 6.25 µM, 37 °C, three hours): 0.14 ± 0.036%
- % Hemolysis (hRBCs; Se concentration 8 µM, 37 °C, three hours): 0.06 ± 0.024%
- % Hemolysis (hRBCs; Se concentration 50 µM, 37 °C, three hours): 0.08 ± 0.074%
- % mutagenic inhibition [4, 11]: 11%
- Number of Revertant Colonies [4, 11]: 435 ± 24
- % mutagenic inhibition [4, 12]: 18%
- Number of Revertant Colonies [4, 12]: 404 ± 20
- % mutagenic inhibition [4, 13]: 21%
- Number of Revertant Colonies [4, 13]: 385 ± 28
- inhibition of mutagen-induced revertant colonies ([4]; TA100, +S9, IQ, 6.25–12.5 µM/plate): 18–21%
- anti-mutagenic activity in the AF-2-induced mutation model ([4]; TA100, −S9): not observed
- % mutagenic inhibition [4, 14]: −17%
- Number of Revertant Colonies [4, 14]: 541 ± 82
- % mutagenic inhibition [4, 15]: −24%
- Number of Revertant Colonies [4, 15]: 570 ± 40
- % mutagenic inhibition [4, 16]: −30%
- Number of Revertant Colonies [4, 16]: 597 ± 58
- Number of Revertant Colonies ([2]; TA 100, +S9, 3.12 µM/plate): 121 ± 8
- Number of Revertant Colonies ([2]; TA 100, +S9, 6.25 µM/plate): 122 ± 11
- Number of Revertant Colonies ([2]; TA 100, +S9, 12.5 µM/plate): 126 ± 7
- Number of Revertant Colonies ([2]; TA 100, −S9, 3.12 µM/plate): 117 ± 7
- Number of Revertant Colonies ([2]; TA 100, −S9, 6.25 µM/plate): 110 ± 4
- Number of Revertant Colonies ([2]; TA 100, −S9, 12.5 µM/plate): 112 ± 7

Molecule: CCOC(N)=O [Urethane, ethyl carbamate]
- Frequency of Mutant Spots Per Individual: Large Single (m = 5) (Drosophila melanogaster [7]; 40 wings): 10.50
- Frequency of Mutant Spots Per Individual: Small Single (m = 2) (Drosophila melanogaster [7]; 40 wings): 24.75
- Frequency of Mutant Spots Per Individual: Total Spots (m = 2) (Drosophila melanogaster [7]; 40 wings): 36.25
- Frequency of Mutant Spots Per Individual: Twin (m = 5) (Drosophila melanogaster [7]; 40 wings): 1.0
- Number of Spots: Large Single (m = 5) (Drosophila melanogaster [7]; 40 wings): 420
- Number of Spots: Small Single (m = 2) (Drosophila melanogaster [7]; 40 wings): 990
- Number of Spots: Total Spots (m = 2) (Drosophila melanogaster [7]; 40 wings): 1450
- Number of Spots: Twin (m = 5) (Drosophila melanogaster [7]; 40 wings): 40
- Statistical diagnosis: Large Single (m = 5) (Drosophila melanogaster [7]; vs DI): +
- Statistical diagnosis: Small Single (m = 2) (Drosophila melanogaster [7]; vs DI): +
- Statistical diagnosis: Total Spots (m = 2) (Drosophila melanogaster [7]; vs DI): +
- Statistical diagnosis: Twin (m = 5) (Drosophila melanogaster [7]; vs DI): +

Molecule: Triton X-100
- % Hemolysis (hRBCs; positive control, run beside each Se form): 98 ± 0.052% and 100 ± 0.23%
